Reference: patent US20130266636A1, “METHODS FOR BLOCKING CELL PROLIFERATION AND TREATING DISEASES AND CONDITIONS RESPONSIVE TO CELL GROWTH INHIBITION” (THE REGENTS OF THE UNIVERSITY OF CALIFORNIA, priority 2010, published 2013)

Experiments:
[1] = system: p21-activated kinase (PAK); conditions: inferred from MEK S298; cited from earlier work
[2] = biological target: RAF dimerization (BRAF and CRAF) (Homo sapiens, UniProt P04049); assay: RAF dimerization, immunoblot of BRAF and CRAF immunoprecipitates from XPA-1 cells; format: cell-based; parameters: immunoblot analysis of BRAF and CRAF immunoprecipitates from XPA-1 cells; endogenous in cells; host or cells: XPA-1
Protocol: FIGS. 6 and 7 illustrate immunoblot analysis of CRAF immunoprecipitated from XPA-1 cells treated with KG5 and KG38.
FIG. 14 illustrates immunoblot analysis of BRAF and CRAF immunoprecipitates from XPA-1 cells treated with PD0325901, Sorafenib, L-779450, PLX4720, KG5 or KG1.
Immunoprecipitation and Immunoblot Analysis Cells were lysed in either NP40 lysis buffer (150 mM NaCl, 50 mM Tris Base pH 7.4, 1% NP40) or RIPA buffer (50 mM Tris pH 7.4, 100 mM NaCl, 0.1% SDS) supplemented with complete protease inhibitor mixture (Roche), 50 mM NaF and 1 mM Na3VO4 and centrifuged at 13,000×g for 10 min at 4° C. Protein concentration was determined by BCA assay. […] of protein were immunoprecipitated with […] of anti-Flag (Sigma), anti-CRAF (BD Pharmingen), anti-Plk1 (Abcam), anti-γ-Tubulin (sigma) or anti-cenpF (Santa Cruz) antibodies overnight at 4° C. followed by capture with 25 μl of protein A/G (Pierce). Beads were washed five times, eluted in boiling Laemmli buffer, resolved on 10% SDS-PAGE and immunoblotting was performed with anti-Plk1 antibody (Abcam), anti-CRAF antibody (BD Pharmingen), anti-Aurora A (Abcam), anti-phospho-S338 CRAF (Cell Signaling), anti-phospho-T210 Plk1 or anti-phospho-T288 Aurora A (Cell signaling) diluted 1:1000. For immunoblot analysis, […] of protein was boiled in […]

FAK or Src = conditions: cited from earlier work
[3] = system: MDA-MB-231 human breast carcinoma cells; assay: Cells in pro-metaphase in orthotopic breast tumor xenografts; format: in vivo, mice; conditions: systemic KG5 50 mg/Kg, after three days
Source text: FIG. 34. CRAF is required for mitotic progression: (a) Cell cycle analysis of WT and CRAF−/− MEFs. Left graph, Cells in G2/M were quantified by flow cytometry. Right graph, Cells at pro-metaphase were quantified using confocal microscopy. Error bars represent s.d. (n=4); * two tailed p value=0.0079 (left graph) and p=0.0055 (right graph) using a Mann Whitney U test. (b) WT and CRAF−/− MEFs were synchronized at pro-metaphase with a thymidine-nocodazole block as described in these Methods, and subsequently released from the blockade and allowed to progress through mitosis. Quantification of cells in G2/M was performed by flow cytometry. Error bars represent s.d. (n=3). (c) Confocal microscopy images of WT and CRAF−/− cells progressing through mitosis at 0, 60 and 360 minutes after release from pro-metaphase blockade. Cells were stained for α-tubulin (in red) and DNA (TOPRO-3™ in blue). Scale bar, 10 μm. […] Cell cycle analysis and quantification of cells in G2/M was performed by flow cytometry. […] (e) Immunohistochemical staining of phospho-5338 CRAF and phospho-histone H3 (mitotic marker) in orthotopic breast and tumor xenografts untreated or treated systemically with KG5 (50 mg/Kg for 3 days Scale bar, 50 μm. […]. Circles indicate cells in pro-metaphase. Right, Quantification of cells in pro-metaphase. Error bars represent s.d. (n=12); * two tailed p value=0.006 using Student T test. […]

PDGFRβ = PDGFRβ (Homo sapiens, UniProt P09619); conditions: in response to PDGF-BB; cited from earlier work
Sequence of PDGFRβ (P09619 33-1106, species assumed): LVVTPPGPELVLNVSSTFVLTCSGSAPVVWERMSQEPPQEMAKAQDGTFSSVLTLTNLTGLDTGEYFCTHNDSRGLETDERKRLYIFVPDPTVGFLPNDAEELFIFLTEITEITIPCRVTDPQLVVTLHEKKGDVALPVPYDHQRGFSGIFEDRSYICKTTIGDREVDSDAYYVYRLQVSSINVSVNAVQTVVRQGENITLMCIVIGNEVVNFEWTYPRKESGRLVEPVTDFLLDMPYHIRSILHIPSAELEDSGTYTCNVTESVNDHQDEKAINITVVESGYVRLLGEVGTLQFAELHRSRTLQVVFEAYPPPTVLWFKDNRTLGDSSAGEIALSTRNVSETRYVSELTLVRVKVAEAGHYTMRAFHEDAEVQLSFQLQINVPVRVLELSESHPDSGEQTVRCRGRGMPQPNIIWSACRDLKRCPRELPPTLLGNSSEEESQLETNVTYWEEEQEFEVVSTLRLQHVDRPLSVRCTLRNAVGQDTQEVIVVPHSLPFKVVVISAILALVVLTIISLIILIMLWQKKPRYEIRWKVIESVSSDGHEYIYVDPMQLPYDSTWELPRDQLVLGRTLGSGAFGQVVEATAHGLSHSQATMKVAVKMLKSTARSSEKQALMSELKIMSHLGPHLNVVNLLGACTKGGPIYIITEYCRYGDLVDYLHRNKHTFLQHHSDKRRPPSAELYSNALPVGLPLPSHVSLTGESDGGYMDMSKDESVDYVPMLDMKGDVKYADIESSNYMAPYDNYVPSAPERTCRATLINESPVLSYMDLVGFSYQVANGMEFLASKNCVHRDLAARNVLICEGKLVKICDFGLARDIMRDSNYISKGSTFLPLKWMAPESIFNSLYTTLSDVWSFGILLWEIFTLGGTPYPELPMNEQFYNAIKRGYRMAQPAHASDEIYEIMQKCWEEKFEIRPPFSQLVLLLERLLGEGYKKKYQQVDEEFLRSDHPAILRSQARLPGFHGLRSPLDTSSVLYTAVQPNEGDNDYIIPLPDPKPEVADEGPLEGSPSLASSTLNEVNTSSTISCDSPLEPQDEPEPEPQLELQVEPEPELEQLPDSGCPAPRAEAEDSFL

Sequence of RAF dimerization (BRAF and CRAF) (P04049 whole entry): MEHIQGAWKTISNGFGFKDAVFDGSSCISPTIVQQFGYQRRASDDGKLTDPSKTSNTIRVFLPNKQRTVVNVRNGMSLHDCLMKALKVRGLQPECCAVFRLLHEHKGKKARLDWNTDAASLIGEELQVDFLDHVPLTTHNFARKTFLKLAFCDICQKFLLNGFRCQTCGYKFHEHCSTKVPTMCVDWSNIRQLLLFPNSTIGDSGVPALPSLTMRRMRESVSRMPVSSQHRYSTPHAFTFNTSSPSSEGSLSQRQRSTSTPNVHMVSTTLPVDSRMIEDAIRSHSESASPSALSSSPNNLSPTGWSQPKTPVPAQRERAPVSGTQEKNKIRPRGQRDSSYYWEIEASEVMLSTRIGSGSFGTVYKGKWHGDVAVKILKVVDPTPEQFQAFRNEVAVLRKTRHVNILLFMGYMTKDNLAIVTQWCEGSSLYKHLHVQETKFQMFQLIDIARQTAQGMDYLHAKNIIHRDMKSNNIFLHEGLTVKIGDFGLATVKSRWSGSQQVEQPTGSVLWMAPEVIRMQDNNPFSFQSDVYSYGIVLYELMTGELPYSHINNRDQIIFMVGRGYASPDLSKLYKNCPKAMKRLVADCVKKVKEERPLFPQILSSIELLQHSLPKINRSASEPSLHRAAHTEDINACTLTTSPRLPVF

Compound: CSc1nc(N)cc(Oc2ccc(-c3nnc(Nc4cccc(C(F)(F)F)c4)[nH]3)cc2)n1 [KG5]
- PAK activity [1]: does not directly inhibit PAK activity
- RAF dimerization [2]: prevents RAF dimerization
- integrin-mediated signaling to FAK or Src (FAK or Src): no effect
- cells at pro-metaphase in orthotopic breast tumor tissues [3]: accumulation of cells at pro-metaphase
- PDGFRβ autophosphorylation (PDGFRβ): directly impacts PDGFRβ autophosphorylation
